Measurements published in patent publication US4199570A, “1-N-Hetero containing aminoglycoside derivatives” (Shionogi & Co., Ltd., priority 1977, dated 1980).
Converted amounts (≈) assume the structure as drawn.

Key:
Format in all cases: cell-based
[1] = system: Proteus vulgaris TB-615; test: MIC (Table 2); conditions: TB615, tobramycin resistant strain, read-out: Minimum Inhibitory Concentration (MIC)
[2] = system: Pseudomonas aerginosa TB-121; test: MIC (Table 3); conditions: TB121, read-out: Minimum Inhibitory Concentration (MIC)
[3] = system: Staphylococcus epidermidis TB-775; test: MIC (Table 3); conditions: TB775, read-out: Minimum Inhibitory Concentration (MIC)
[4] = system: Staphylococcus epidermidis TB-302; test: MIC (Table 2); conditions: TB302, tobramycin resistant strain, read-out: Minimum Inhibitory Concentration (MIC)
[5] = system: Pseudomonas aeruginosa TB-151; test: MIC (Table 2); conditions: TB151, tobramycin resistant strain, read-out: Minimum Inhibitory Concentration (MIC)
[6] = system: Pseudomonas aeruginosa TB-151; test: MIC (Table 3); conditions: TB151, read-out: Minimum Inhibitory Concentration (MIC)
[7] = system: Staphylococcus epidermidis TB-775; test: MIC (Table 2); conditions: TB775, tobramycin resistant strain, read-out: Minimum Inhibitory Concentration (MIC)
[8] = system: Pseudomonas aeruginosa TB-121; test: MIC (Table 2); conditions: TB121, tobramycin resistant strain, read-out: Minimum Inhibitory Concentration (MIC)
[9] = system: Proteus vulgaris TB-615; test: MIC (Table 3); conditions: TB615, read-out: Minimum Inhibitory Concentration (MIC)

SMILES	MIC [1]	MIC [2]	MIC [3]	MIC [4]	MIC [5]	MIC [6]	MIC [7]	MIC [8]	MIC [9]
NC[C@H]1O[C@H](O[C@H]2[C@H](O)[C@@H](O[C@H]3O[C@H](CO)[C@@H](O)[C@H](N)[C@H]3O)[C@H](N)C[C@@H]2N)[C@H](N)C[C@@H]1O [TOB, tobramycin]	50 µg/mL (≈ 107 µM)	25 µg/mL (≈ 53.5 µM)	100 µg/mL (≈ 214 µM)	25 µg/mL (≈ 53.5 µM)	100 µg/mL (≈ 214 µM)	25 µg/mL (≈ 53.5 µM)	> 100 µg/mL	100 µg/mL (≈ 214 µM)	50 µg/mL (≈ 107 µM)
NC[C@H]1O[C@H](O[C@H]2[C@H](O)[C@@H](O[C@H]3O[C@H](CO)[C@@H](O)[C@H](N)[C@H]3O)[C@H](N)C[C@@H]2N)[C@H](O)[C@@H](O)[C@@H]1O [KM-A, kanamycin A]	100 µg/mL (≈ 206 µM)	–	–	12.5 µg/mL (≈ 25.8 µM)	> 100 µg/mL	–	> 100 µg/mL	> 100 µg/mL	–
NC[C@H]1O[C@H](O[C@H]2[C@H](O)[C@@H](O[C@H]3O[C@H](CO)[C@@H](O)[C@H](N)[C@H]3O)[C@H](NC(=O)C3(O)CNC3)C[C@@H]2N)[C@H](O)[C@@H](O)[C@@H]1O [Comp. (2), 1-N-(3-hydroxyazetidine-3-carbonyl)kanamycin A]	6.25 µg/mL (≈ 10.7 µM)	–	–	6.25 µg/mL (≈ 10.7 µM)	6.25 µg/mL (≈ 10.7 µM)	–	50 µg/mL (≈ 85.7 µM)	25 µg/mL (≈ 42.8 µM)	–
NC[C@H]1O[C@H](O[C@H]2[C@H](O)[C@@H](O[C@H]3O[C@H](CO)[C@@H](O)[C@H](N)[C@H]3O)[C@H](NC(=O)C3(O)CNC3)C[C@@H]2N)[C@H](N)C[C@@H]1O [Comp. (1), 1-N-(3-hydroxyazetidine-3-carbonyl)tobramycin]	6.25 µg/mL (≈ 11 µM)	–	–	12.5 µg/mL (≈ 22.1 µM)	3.13 µg/mL (≈ 5.52 µM)	–	> 100 µg/mL	25 µg/mL (≈ 44.1 µM)	–
